Assay results published in patent USRE37781E1, “Substituted cyclic carbonyls and derivatives thereof useful as retroviral protease inhibitors” (DuPont Pharmaceuticals Company, priority 1991, dated 2002).
Values after ≈ are worked out from the molar mass of the structure shown. Read-outs that look alike come from different tables or passages of the source.

Tests used:
[1] = biological target: single-chain tethered dimer of HIV protease (Human immunodeficiency virus 1, UniProt P04585); experiment: biochemical; assay type: biochemical; set-up: fused on or other part: A second copy of the same protease unit is joined to the first by a short peptide tether, giving one polypeptide
HIV-1 (RF) in MT-2 cells = experiment: microbe, parasite or virus in culture; assay type: cell-based
Outline: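 HIV-1 laboratory strains (RF, MN, IIIB) grown in H9 cells in RPMI 1640 with 5% FCS; infections in MT-2 cells. Viral RNA quantified by hybridization with biotinylated gag/pol capture probes on streptavidin plates and alkaline phosphatase-conjugated reporter probes; BH10 gag-pol in vitro transcripts serve as RNA standards.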

[2] = read-out: HPLC K1, Table 2d, HIV protease inhibition, HPLC method
[3] = Human immunodeficiency virus 1, MT2, 48 h, Table 2d, HIV RNA assay, read-out: IC90
[4] = Table 2d, HIV protease inhibition, HPLC method, read-out: HPLC K1
[5] = read-out: HPLC K1, Table 2d, class symbols
[6] = Human immunodeficiency virus 1, MT2, 48 h, Table 2d, class symbols, read-out: IC90
[7] = HIV protease inhibition, HPLC method, Table 2d, read-out: HPLC K1
[8] = HIV RNA assay, HIV-1 infected MT-2 cells, Table 2d

Work on `O=S1(=O)N(Cc2cccc(OCc3ccccc3)c2)C(Cc2ccccc2)C(O)C(O)C(Cc2ccccc2)N1Cc1cccc(OCc2ccccc2)c1` (stereo not drawn) [Example 23C] yielded a Ki ([1]; read-out: HPLC Ki, Table 2m) of 10 to 1000 nM and an IC90 (HIV-1 (RF) in MT-2 cells; Human immunodeficiency virus 1, MT2, Table 2m, read-out: IC90) of 10 to 100 µg/mL (≈ 13.2 to 132 µM).

`CCC(=O)c1cccc(CN2C(=O)N(Cc3cccc(C(=O)CC)c3)C(Cc3ccccc3)C(O)C(O)C2Cc2ccccc2)c1` (stereo not drawn) [Example 15XN] was tested, and the Ki [1, 2] was under 10 nM and the IC90 (HIV-1 (RF) in MT-2 cells; [3]) was under 10 µg/mL.

`N#CCc1cccc(CN2C(=O)N(Cc3cccc(CC#N)c3)C(Cc3ccccc3)C(O)C(O)C2Cc2ccccc2)c1` (stereo not drawn) [15DU] was tested, and the Ki [1, 2] was 10 to 1000 nM and the IC90 (HIV-1 (RF) in MT-2 cells; [3]) was under 10 µg/mL.

`NC(=O)c1cc(CN2C(=O)N(Cc3ccc(F)c(C(N)=O)c3)C(Cc3ccccc3)C(O)C(O)C2Cc2ccccc2)ccc1F` (stereo not drawn) [15ED] was tested, and the Ki [1, 4] was under 10 nM and the IC90 (HIV-1 (RF) in MT-2 cells; Table 2d, HIV RNA assay) was “++ (++=10 to 100 μg/mL)”.

`CCOP1(=O)N[C@H](Cc2ccccc2)[C@H](O)[C@@H](O)[C@@H](Cc2ccccc2)N1` (stereo partly drawn) [28F] was tested, and the Ki ([1]; Table 2r, read-out: Ki HPLC) was over 1000 nM and the IC90 (HIV-1 (RF) in MT-2 cells; Table 2r) was “++/+ (The ++/+ is used in the cases where an IC90 was determined to be >50 μg/mL)”.

`NS(=O)(=O)c1cccc(CN2C(=O)N(Cc3cccc(S(N)(=O)=O)c3)C(Cc3ccccc3)C(O)C(O)C2Cc2ccccc2)c1` (stereo not drawn) [15XQ] gave a Ki [1, 2] of under 10 nM and an IC90 (HIV-1 (RF) in MT-2 cells; [3]) of under 10 µg/mL.

`O=C1N(Cc2cccc([N+](=O)[O-])c2)C(Cc2ccccc2)C(O)C(O)C(Cc2ccccc2)N1CC1CC1` (stereo not drawn) [15H] was tested, and the Ki [1, 5] was under 10 nM and the IC90 (HIV-1 (RF) in MT-2 cells; [6]) was under 10 µg/mL.

`O=C(NCCCCCN1C(=O)N(CCCCCNC(=O)c2ccccc2F)C(Cc2ccccc2)C(O)C(O)C1Cc1ccccc1)c1ccccc1F` (stereo not drawn) [15FB] was tested, and the Ki [1, 7] was 10 to 1000 nM and the IC90 (HIV-1 (RF) in MT-2 cells; [8]) was “+++ (+++=<10 μg/mL)”.

With `O=S1(=O)N(Cc2ccc(CO)cc2)C(Cc2ccc(F)cc2)C(O)C(O)C(Cc2ccc(F)cc2)N1Cc1ccc(CO)cc1` (stereo not drawn) [31D] the Ki ([1]; Table 2u (second printing), HPLC method, read-out: K1 (HPLC)) was under 10 nM, the Ki ([1]; Table 2u, HPLC method, read-out: K1 (HPLC)) was under 10 nM and the IC90 (HIV-1 (RF) in MT-2 cells; Table 2u) was “+++ (+++=<10 μg/mL)”. The IC90 (HIV-1 (RF) in MT-2 cells; Table 2u (second printing)) was “+++ (+++=<10 μg/mL)”.

`CNc1cccc(CN2C(=O)N(Cc3ccc(CO)cc3)C(Cc3ccccc3)C(O)C(O)C2Cc2ccccc2)c1` (stereo not drawn) [15M] showed a Ki [1, 5] of under 10 nM and an IC90 (HIV-1 (RF) in MT-2 cells; [6]) of under 10 µg/mL.

`CC(O)c1cccc(CN2C(=O)N(Cc3cccc(Br)c3)C(Cc3ccccc3)C(O)C(O)C2Cc2ccccc2)c1` (stereo not drawn) [Example 9R] showed a Ki [1, 5] of 10 to 1000 nM and an IC90 (HIV-1 (RF) in MT-2 cells; [6]) of under 10 µg/mL.

For `N#Cc1cccc(CN2C(=S)N(Cc3ccc(CO)cc3)C(Cc3ccccc3)C(O)C(O)C2Cc2ccccc2)c1` (stereo not drawn) [Example 27H], the Ki ([1]; Table 2q, read-out: HPLC Ki) was under 10 nM and the IC90 (HIV-1 (RF) in MT-2 cells; Table 2q) was “+++ (+++=<10 μg/mL)”.

For `CCNCc1cccc(C(=O)OCc2ccc(CN3C(=O)N(Cc4ccc(COC(=O)c5cccc(CNCC)c5)cc4)[C@H](Cc4ccccc4)[C@H](O)[C@@H](O)[C@H]3Cc3ccccc3)cc2)c1.Cl` [29U], the Ki ([1]; Table 2s, read-out: Ki (HPLC)) was over 1000 nM and the IC90 (HIV-1 (RF) in MT-2 cells; Table 2s) was “+++ (+++=<10 μg/mL)”.

With `CNC(=S)NCCCCCN1C(=O)N(CCCCCNC(=S)NC)C(Cc2ccccc2)C(O)C(O)C1Cc1ccccc1` (stereo not drawn) [15EV] the Ki [1, 4] was 10 to 1000 nM and the IC90 (HIV-1 (RF) in MT-2 cells; Table 2d, HIV RNA assay) was “++/+ (The ++/+ is used in the cases where an IC90 was determined to be >50 μg/mL)”.

With `O=C(NCCCCCN1C(=O)N(CCCCCNC(=O)c2cc(F)cc(F)c2)C(Cc2ccccc2)C(O)C(O)C1Cc1ccccc1)c1cc(F)cc(F)c1` (stereo not drawn) [15FG] the Ki [1, 7] was 10 to 1000 nM and the IC90 (HIV-1 (RF) in MT-2 cells; [8]) was “++/+ (The ++/+ is used in the cases where an IC90 was determined to be >50 μg/mL)”.

For `NC(=O)c1cc(CN2C(=O)N(Cc3ccc(F)c(C(N)=NO)c3)C(Cc3ccccc3)C(O)C(O)C2Cc2ccccc2)ccc1F` (stereo not drawn) [15EH], the Ki [1, 4] was under 10 nM and the IC90 (HIV-1 (RF) in MT-2 cells; Table 2d, HIV RNA assay) was “+++ (+++=<10 μg/mL)”.

With `O=C1N(Cc2ccc3[nH]nc(Cl)c3c2)C(Cc2ccccc2)C(O)C(O)C(Cc2ccccc2)N1Cc1ccc2[nH]nc(Cl)c2c1` (stereo not drawn) [15DI] the Ki [1, 4] was under 10 nM and the IC90 (HIV-1 (RF) in MT-2 cells; Table 2d, HIV RNA assay) was “+++ (+++=<10 μg/mL)”.

With `CCNC(=O)c1cccc(CN2C(=O)N(Cc3cccc(CO)c3)C(Cc3ccccc3)C(O)C(O)C2Cc2ccccc2)c1` (stereo not drawn) [15WK] the Ki [1, 5] was under 10 nM and the IC90 (HIV-1 (RF) in MT-2 cells; [6]) was under 10 µg/mL.

In the case of `CC(=O)Oc1ccc(CN2C(=O)N(Cc3ccc(OC(C)=O)cc3)C(Cc3ccccc3)C(O)C(O)C2Cc2ccccc2)cc1` (stereo not drawn) [10L], the Ki [1, 5] is reported as 10 to 1000 nM and the IC90 (HIV-1 (RF) in MT-2 cells; [6]) is reported as under 10 µg/mL.

`O=C1N(Cc2cccc(C(=O)C(F)(F)F)c2)C(Cc2ccccc2)C(O)C(O)C(Cc2ccccc2)N1Cc1cccc(C(=O)C(F)(F)F)c1` (stereo not drawn) [Example 15XM] gave a Ki [1, 2] of under 10 nM and an IC90 (HIV-1 (RF) in MT-2 cells; [3]) of under 10 µg/mL.

With `NC(=O)c1cccc(CN2C(=O)N(Cc3cccc(C(N)=O)c3)C(Cc3ccc(F)c(F)c3)C(O)C(O)C2Cc2ccc(F)c(F)c2)c1` (stereo not drawn) [20AC] the Ki ([1]; Table 2i, read-out: HPLC Ki) was under 10 nM and the IC90 (HIV-1 (RF) in MT-2 cells; Table 2i) was “+++ (+++=<10 μg/mL)”.

Work on `NC(=NO)c1cccc(CN2C(=O)N(Cc3cccc(-c4cc[nH]n4)c3)C(Cc3ccccc3)C(O)C(O)C2Cc2ccccc2)c1` (stereo not drawn) [Example 15BW] yielded a Ki [1, 2] of under 10 nM and an IC90 (HIV-1 (RF) in MT-2 cells; [3]) of under 10 µg/mL.

With `COC(=O)CCCCCN1C(=O)N(CCCCCC(=O)O)C(Cc2ccccc2)C(O)C(O)C1Cc1ccccc1` (stereo not drawn) [Example 12I] the Ki ([1]; Table 2d, class symbols, read-out: HPLC K1) was under 10 nM and the IC90 (HIV-1 (RF) in MT-2 cells; Table 2d, class symbols) was “+ (+=>100 μg/mL)”.
